Data: PubChem BioAssay (NCI)
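Method: 48-hour compound exposure of cells in 96-well plates, five concentrations, linear interpolation of endpoints. GI50: concentration for 50% inhibition of growth. The concentration for full growth arrest is given as TGI.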

Tests used:
Experiment in all cases: NCI anticancer screen, dose series, 48 h
[1] = system: 786-0 renal
[2] = system: EKVX NSCLC
[3] = system: HCT-15 colon
[4] = system: HS 578T breast
[5] = system: HT29 colon
[6] = system: PC-3 prostate
[7] = system: SF-268 CNS
[8] = system: KM20L2 colon
[9] = system: LXFL 529 NSCLC
[10] = system: U251 CNS
[11] = system: DLD-1 colon
[12] = system: DMS 273 small cell lung
[13] = system: XF 498 CNS

| SMILES | TGI [1] [µM] | TGI [2] [µM] | TGI [3] [µM] | TGI [4] [µM] | TGI [5] [µM] | TGI [6] [µM] | TGI [7] [µM] | TGI [8] [µM] | TGI [9] [µM] | GI50 [2] [µM] | GI50 [3] [µM] | GI50 [4] [µM] | GI50 [5] [µM] | GI50 [7] [µM] | GI50 [10] [µM] | TGI [10] [µM] | TGI [11] [µM] | TGI [12] [µM] | TGI [13] [µM] | GI50 [6] [µM] |
| --- | --- | --- | --- | --- | --- | --- | --- | --- | --- | --- | --- | --- | --- | --- | --- | --- | --- | --- | --- | --- |
| Cc1nnc2sc(-c3ccc(N)cc3)nn12 | > 100 | > 100 | > 100 | > 100 | > 100 | > 100 | > 100 |  |  |  |  |  |  |  |  |  |  |  |  |  |
| CCOC(=O)C1=C(C)N2CCCOC2(C)C(C(=O)OC)C1c1cccc([N+](=O)[O-])c1 (centres undefined) |  | > 100 |  |  | > 100 |  | > 100 | > 100 | > 100 |  |  |  |  |  |  |  |  |  |  |  |
| CC(=O)O[C@H]1CC[C@]2(C)[C@H]3C(=O)C=C4[C@@H]5C[C@](C)(C(=O)N6CCCNCC6)CC[C@]5(C)CC[C@@]4(C)[C@]3(C)CC[C@H]2C1(C)C |  | 3.15 | 2.97 | 4.69 | 3.17 |  | 3.58 |  |  | 1.67 | 1.48 | 2.13 | 1.5 | 1.8 | 1.6 | 3.37 |  |  |  |  |
| O=[N+]([O-])/C=C/c1cccc(F)c1 |  | 7.45 | 5.6 | 9.18 | 10.3 | 11.9 | 29.4 |  |  |  |  |  |  |  |  | 16.4 |  |  |  |  |
| COc1cc2c(cc1OC)C(C1(O)CCCCC1)NCC2 (centres undefined) |  | > 100 | > 100 |  | > 100 |  | > 100 | > 100 | > 100 |  |  |  |  |  |  | > 100 | > 100 | > 100 | > 100 |  |
| C=C(/C=C/C=C(/CCC=C(C)C)COC(C)=O)[C@@H]1CC[C@]2([C@H](CCCO)/C(=C(/C)C=O)CC[C@]2(C)O)[C@@H]1O |  | 42.2 | 30.4 |  | 28.4 |  | 41.9 | 27.9 |  |  |  |  |  |  |  | 30.7 | 30.4 | 21.1 |  |  |
| Cc1c(Cl)c(S(N)(=O)=O)cc(S(N)(=O)=O)c1NC(=O)c1ccc(Cl)cc1 | > 100 |  | > 100 | > 100 | > 100 | > 100 | > 100 |  |  |  |  |  |  |  |  | > 100 |  |  |  |  |
| NC(Cc1ccc2oc3cc(=O)c4ccccc4c-3nc2c1)C(=O)O (centres undefined) | > 100 | > 100 | > 88.3 | 59.6 | 72.6 | > 100 | > 100 | > 100 | > 100 |  |  |  |  |  |  | > 87.1 | > 66.6 | > 60.1 |  |  |
| Nc1nc(Cl)cc(NCCCCO)n1 |  | > 100 | > 100 |  | > 100 |  | > 100 | > 100 | > 100 |  |  |  |  |  |  | > 100 | > 100 | > 100 |  |  |
| NC(=O)c1nnc2cc(F)c(F)cc2c1N | > 100 | > 100 | > 100 | 84.4 | > 100 | > 100 | 49.9 |  |  |  |  |  |  |  |  | 69.7 |  |  |  |  |
| N=C(N)SC1c2ccccc2-c2cc([N+](=O)[O-])ccc21 (centres undefined) | 14.9 | 29 | 22.6 | 12.2 | 13.5 | 13.8 | 14.3 |  |  |  |  |  |  |  |  | 8.95 |  |  |  |  |
| C#CCCCCC#CC1CCCC1C1=CC(=O)c2ccccc21 (centres undefined) |  | 28 | 19.9 |  | 15.9 |  | 11.8 | 22 |  |  |  |  |  |  |  | 16.9 | 24.3 | 11.9 | 20.8 |  |
| CN[C@@H]1[C@H](O)[C@H](NC)[C@H]2O[C@@]3(O)C(=O)C[C@@H](C)O[C@H]3O[C@@H]2[C@H]1O |  | > 100 | > 100 | > 100 | > 100 | > 100 | > 100 |  |  |  |  |  |  |  |  | > 100 |  |  |  |  |
| CCCNCC(O)/C=C/[Si](C)(C)C (centres undefined) (tested in a mixture with another compound) |  | > 100 | > 100 |  | > 100 |  |  | > 100 | > 100 |  |  |  |  |  |  | > 100 | > 100 |  | 74.8 |  |
| Cc1c2ccccc2nc2[nH]c3ccncc3c12 | 71.5 | 98.5 | > 100 | > 100 | > 100 | > 100 | 32.8 |  |  |  |  |  |  |  |  | > 100 |  |  |  |  |
| C[n+]1ccccc1/C=C/c1ccc2c(c1)OCO2 | > 10 | > 10 | > 10 | > 10 | > 10 | > 10 | > 10 |  |  |  |  |  |  |  |  | > 10 |  |  |  |  |
| CC1(C)[C@@H]2C[C@H]1C(Cc1ccccc1C[C@H]1c3cc(-c4ccccn4)ncc3[C@H]3C[C@@H]1C3(C)C)c1cc(-c3ccccn3)ncc12 (some centres undefined) |  | > 100 | > 100 | > 100 | > 100 |  | > 36.2 |  |  |  |  |  |  |  |  | > 28.8 |  |  |  |  |
| CCCCCCc1ccc(O)cc1O |  | > 100 | > 100 |  | > 100 |  | > 100 | > 100 |  |  |  |  |  |  |  | > 100 | > 100 | > 100 | > 100 |  |
| Oc1ccc2ccccc2c1N=Nc1ccc(N=Nc2ccccc2)cc1 | > 100 | > 100 | > 100 | > 100 | > 100 | > 100 | > 100 |  |  |  |  |  |  |  |  | > 100 |  |  |  |  |
| O=S(=O)(O)c1cc(O)c2c(O)c(N=Nc3ccc(/C=C/c4ccc(N=Nc5c(S(=O)(=O)O)cc6cc(S(=O)(=O)O)cc(O)c6c5O)cc4S(=O)(=O)O)c(S(=O)(=O)O)c3)c(S(=O)(=O)O)cc2c1 | > 100 | > 100 | > 100 |  | > 100 |  | > 100 | > 100 | > 100 |  |  |  |  |  |  | > 100 | > 100 | > 100 | > 100 |  |
| CCOC(=O)C1=C(C)N(Cc2ccc(Cl)cc2Cl)C2(O)C(OC)CC(=O)C3C(=O)N(c4ccccc4)C(=O)C132 (centres undefined) | 4.11 | 16.7 | 2.64 | 92.8 | 4 | 15.1 | 14.3 |  |  |  |  |  |  |  |  | 3.69 |  |  |  |  |
| Cc1ccc(NCCN(C)CC(C)O)c2c(=O)c3ccc(Cl)cc3sc12 (centres undefined) |  |  |  | > 100 |  | > 100 | > 100 |  |  |  |  | 2.83 |  | 6.47 | 3.68 | > 100 |  |  |  | 2.96 |
| CN(C)CCNc1ccc2nnn3c4ccc(Cl)cc4c(=O)c1c23 | 15.6 | 22.2 | 14.8 | 13.5 | 15.9 | 13.6 | 23.1 | 16 | 19.2 |  |  |  |  |  |  | 6.72 | 27.7 |  | 23.8 |  |
| COc1cc2c(cc1O)CCN[C@@]21CS[C@H]2c3c(OC(C)=O)c(C)c4c(c3C(COC1=O)N1C2C2c3c(cc(C)c(OC)c3O)CC([C@@H]1O)N2C)OCO4 (some centres undefined) |  |  |  | 0.0137 |  |  |  | 6.01e-05 | 4.31e-05 |  | 0.00282 | 0.00279 |  |  |  |  | 0.0013 | < 1e-06 | < 1e-06 | 0.00429 |
